Test results reported in article PMC9944328 (Nature Communications, 2023).
Where two headings read alike, the source gives them in different places.

Tested on: SSTR2 mutants
Assay: SSTRs Gi-mediated cAMP inhibition, GloSensor, HEK293, 5 μM forskolin, 15 min room temperature (SSTR2 mutants)
Type: cell-based, human
Parameters: Best-fit Bottom, cAMP inhibition / Best-fit Top, cAMP inhibition / Span, cAMP inhibition / Bottom (best-fit value) / Top (best-fit value) / Span (best-fit value) / Span (best-fit) / Bottom (best-fit) / Top (best-fit) / Best-fit Bottom / Best-fit Top / Best-fit Span / Top / Span: scale not given here
Protocol: The levels of the intracellular 3′, 5′-cyclic AMP (cAMP) were measured by the GloSensor cAMP assay (Promega) as described in the previous studies[28],[41] which has been widely used. The human full-length SSTRs and mutants were cloned into the pcDNA3.1+ vector with a HA signal sequence followed by a Flag tag at the N-terminus. HEK293 cells (ATCC, CRL-1573) were seeded into 6-well microplates at a density of 1.0 × 10^6 cells/well and cultured for 24 h at 37 °C with 5% CO2. Cells were then co-transfected with SSTR wild-type or mutants and GloSensor plasmids. After 24 h of transfection, the cells were dissociated with TrypLE™ Express Enzyme (1X) (Thermo Fisher Scientific) and collected by centrifugation at 500 × g for 5 min. Then the collected cells were suspended in Hank’s balanced salt solution [HBSS (Thermo Fisher Scientific)] supplemented with […] (YEASEN), and then the suspension cells were seeded into 96-well plates with 90 μl/well. After incubating at room temperature for 40 min, 5 μM forskolin and ligands diluted in HBSS were added to each well and the plates were incubated at room temperature for 15 min. […] were measured using the Synergy H1 microplate reader (BioTek) and the data presented are means of at least three independent experiments.

In the case of `C[C@@H](O)[C@@H]1NC(=O)[C@H](CCCCN)NC(=O)[C@@H](Cc2c[nH]c3ccccc23)NC(=O)[C@H](Cc2ccccc2)NC(=O)[C@@H](NC(=O)[C@H](N)Cc2ccccc2)CSSC[C@@H](C(=O)N[C@H](CO)[C@@H](C)O)NC1=O` [octreotide], the “Best-fit Top, cAMP inhibition” value (SSTR2 I195A-1, run 1) is reported as 99.51, the “LogEC50, cAMP inhibition” value (SSTR2 I195A-1, run 1) is reported as -8.167 and the “Span, cAMP inhibition” value (SSTR2 I195A-1, run 1) is reported as 98.37. The EC50 (SSTR2 I195A-1, run 1, read-out: EC50, cAMP inhibition) was 6.8 nM, the “Best-fit Bottom, cAMP inhibition” value (SSTR2 I195A-2, run 2) was -0.2331 and the “Best-fit Top, cAMP inhibition” value (SSTR2 I195A-2, run 2) was 94.69. The “LogEC50, cAMP inhibition” value (SSTR2 I195A-2, run 2) was -8.189, the “Span, cAMP inhibition” value (SSTR2 I195A-2, run 2) was 94.92 and the EC50 (SSTR2 I195A-2, run 2, read-out: EC50, cAMP inhibition) was 6.47 nM. For the same compound, the “Best-fit Bottom, cAMP inhibition” value (SSTR2 I195A-3, run 3) was 2.536, the “Best-fit Top, cAMP inhibition” value (SSTR2 I195A-3, run 3) was 107 and the “LogEC50, cAMP inhibition” value (SSTR2 I195A-3, run 3) was -8.29. The “Span, cAMP inhibition” value (SSTR2 I195A-3, run 3) was 104.4, the EC50 (SSTR2 I195A-3, run 3, read-out: EC50, cAMP inhibition) was 5.13 nM and the “Best-fit Bottom, cAMP inhibition” value (SSTR2 L99A-1, run 1) was -0.05878. The “Best-fit Top, cAMP inhibition” value (SSTR2 L99A-1, run 1) was 83.27, the “LogEC50, cAMP inhibition” value (SSTR2 L99A-1, run 1) was -8.764 and the “Span, cAMP inhibition” value (SSTR2 L99A-1, run 1) was 83.33. The EC50 (SSTR2 L99A-1, run 1, read-out: EC50, cAMP inhibition) was 1.72 nM, the “Best-fit Bottom, cAMP inhibition” value (SSTR2 L99A-2, run 2) was 3.887 and the “Best-fit Top, cAMP inhibition” value (SSTR2 L99A-2, run 2) was 89.82. The “LogEC50, cAMP inhibition” value (SSTR2 L99A-2, run 2) was -8.724, the “Span, cAMP inhibition” value (SSTR2 L99A-2, run 2) was 85.94 and the EC50 (SSTR2 L99A-2, run 2, read-out: EC50, cAMP inhibition) was 1.89 nM. The “Best-fit Bottom, cAMP inhibition” value (SSTR2 L99A-3, run 3) was 6.223, the “Best-fit Top, cAMP inhibition” value (SSTR2 L99A-3, run 3) was 104 and the “LogEC50, cAMP inhibition” value (SSTR2 L99A-3, run 3) was -9.836. The “Span, cAMP inhibition” value (SSTR2 L99A-3, run 3) was 97.82, the EC50 (SSTR2 L99A-3, run 3, read-out: EC50, cAMP inhibition) was 0.146 nM and the “Best-fit Bottom, cAMP inhibition” value (SSTR2 Q102A-1, run 1) was 2.423. For the same compound, the “Best-fit Top, cAMP inhibition” value (SSTR2 Q102A-1, run 1) was 108.7, the “LogEC50, cAMP inhibition” value (SSTR2 Q102A-1, run 1) was -7.926 and the “Span, cAMP inhibition” value (SSTR2 Q102A-1, run 1) was 106.2. The EC50 (SSTR2 Q102A-1, run 1, read-out: EC50, cAMP inhibition) was 11.9 nM, the “Best-fit Bottom, cAMP inhibition” value (SSTR2 Q102A-2, run 2) was 0.4721 and the “Best-fit Top, cAMP inhibition” value (SSTR2 Q102A-2, run 2) was 108.9. For the same compound, the “LogEC50, cAMP inhibition” value (SSTR2 Q102A-2, run 2) was -7.92, the “Span, cAMP inhibition” value (SSTR2 Q102A-2, run 2) was 108.4 and the EC50 (SSTR2 Q102A-2, run 2, read-out: EC50, cAMP inhibition) was 12 nM. For the same compound, the “Best-fit Bottom, cAMP inhibition” value (SSTR2 Q102A-3, run 3) was 3.028, the “Best-fit Top, cAMP inhibition” value (SSTR2 Q102A-3, run 3) was 105.6 and the “LogEC50, cAMP inhibition” value (SSTR2 Q102A-3, run 3) was -7.863. The “Span, cAMP inhibition” value (SSTR2 Q102A-3, run 3) was 102.6, the EC50 (SSTR2 Q102A-3, run 3, read-out: EC50, cAMP inhibition) was 13.7 nM and the “Best-fit Top, cAMP inhibition” value (SSTR2 T194A-1, run 1) was 84.79. For the same compound, the “LogEC50, cAMP inhibition” value (SSTR2 T194A-1, run 1) was -7.026, the “Span, cAMP inhibition” value (SSTR2 T194A-1, run 1) was 77.01 and the EC50 (SSTR2 T194A-1, run 1, read-out: EC50, cAMP inhibition) was 94.2 nM. For the same compound, the “Best-fit Top, cAMP inhibition” value (SSTR2 T194A-2, run 2) was 94.26, the “LogEC50, cAMP inhibition” value (SSTR2 T194A-2, run 2) was -7.558 and the “Span, cAMP inhibition” value (SSTR2 T194A-2, run 2) was 87.81. For the same compound, the EC50 (SSTR2 T194A-2, run 2, read-out: EC50, cAMP inhibition) was 27.7 nM, the “Best-fit Top, cAMP inhibition” value (SSTR2 T194A-3, run 3) was 95.49 and the “LogEC50, cAMP inhibition” value (SSTR2 T194A-3, run 3) was -7.626. For the same compound, the “Span, cAMP inhibition” value (SSTR2 T194A-3, run 3) was 91.25, the EC50 (SSTR2 T194A-3, run 3, read-out: EC50, cAMP inhibition) was 23.7 nM and the “Best-fit Bottom, cAMP inhibition” value (SSTR2 V103A-1, run 1) was 3.112. The “Best-fit Top, cAMP inhibition” value (SSTR2 V103A-1, run 1) was 97.5, the “LogEC50, cAMP inhibition” value (SSTR2 V103A-1, run 1) was -8.546 and the “Span, cAMP inhibition” value (SSTR2 V103A-1, run 1) was 94.39. For the same compound, the EC50 (SSTR2 V103A-1, run 1, read-out: EC50, cAMP inhibition) was 2.85 nM, the “Best-fit Bottom, cAMP inhibition” value (SSTR2 V103A-2, run 2) was -14.84 and the “Best-fit Top, cAMP inhibition” value (SSTR2 V103A-2, run 2) was 85.83. For the same compound, the “LogEC50, cAMP inhibition” value (SSTR2 V103A-2, run 2) was -8.054, the “Span, cAMP inhibition” value (SSTR2 V103A-2, run 2) was 100.7 and the EC50 (SSTR2 V103A-2, run 2, read-out: EC50, cAMP inhibition) was 8.84 nM. The “Best-fit Bottom, cAMP inhibition” value (SSTR2 V103A-3, run 3) was -3.777, the “Best-fit Top, cAMP inhibition” value (SSTR2 V103A-3, run 3) was 89.06 and the “LogEC50, cAMP inhibition” value (SSTR2 V103A-3, run 3) was -7.947. The “Span, cAMP inhibition” value (SSTR2 V103A-3, run 3) was 92.84, the EC50 (SSTR2 V103A-3, run 3, read-out: EC50, cAMP inhibition) was 11.3 nM and the “Best-fit Bottom, cAMP inhibition” value (SSTR2 Y50A-1, run 1) was 9.945. The “Best-fit Top, cAMP inhibition” value (SSTR2 Y50A-1, run 1) was 106.2, the “LogEC50, cAMP inhibition” value (SSTR2 Y50A-1, run 1) was -9.897 and the “Span, cAMP inhibition” value (SSTR2 Y50A-1, run 1) was 96.25. For the same compound, the “Best-fit Bottom, cAMP inhibition” value (SSTR2 Y50A-2, run 2) was -3.529, the “Best-fit Top, cAMP inhibition” value (SSTR2 Y50A-2, run 2) was 103.6 and the “LogEC50, cAMP inhibition” value (SSTR2 Y50A-2, run 2) was -10.54. For the same compound, the “Span, cAMP inhibition” value (SSTR2 Y50A-2, run 2) was 107.2, the EC50 (SSTR2 Y50A-2, run 2, read-out: EC50, cAMP inhibition) was 0.0288 nM and the “Best-fit Bottom, cAMP inhibition” value (SSTR2 Y50A-3, run 3) was 9.945. The “Best-fit Top, cAMP inhibition” value (SSTR2 Y50A-3, run 3) was 106.2, the “LogEC50, cAMP inhibition” value (SSTR2 Y50A-3, run 3) was -9.897 and the “Span, cAMP inhibition” value (SSTR2 Y50A-3, run 3) was 96.25. The EC50 (SSTR2 Y50A-3, run 3, read-out: EC50, cAMP inhibition) was 0.127 nM, the Emax (Suppl. Tables 4/5, SSTR2 T194(45.51)H, n=3) was 88.27±7.62 %WT SSTR2 and the Emax (Suppl. Tables 4/5, SSTR2 V103(2.64)N, n=3) was 94.00±3.65 %WT SSTR2. For the same compound, the EC50 (Suppl. Tables 4/5, SSTR2 V103(2.64)N, n=3, read-out: EC50) was 0.23 nM, the “Receptor activation of mutant” value (T194(45.51)H in SSTR2) was “significantly reduced receptor activation” and the “Bottom (best-fit value)” value (T194A-1, run 1) was 7.78. For the same compound, the “Bottom (best-fit value)” value (T194A-2, run 2) was 6.447, the “Bottom (best-fit value)” value (T194A-3, run 3) was 4.244 and the “Bottom (best-fit value)” value (T287A-1, run 1) was 2.841. The “LogEC50 (best-fit value)” value (T287A-1, run 1) was -9.206, the “Span (best-fit value)” value (T287A-1, run 1) was 86.99 and the “Top (best-fit value)” value (T287A-1, run 1) was 89.83. The EC50 (T287A-1, run 1, read-out: EC50 (best-fit value)) was 0.623 nM, the “Bottom (best-fit value)” value (T287A-2, run 2) was -10.83 and the “LogEC50 (best-fit value)” value (T287A-2, run 2) was -9.285. For the same compound, the “Span (best-fit value)” value (T287A-2, run 2) was 118.8, the “Top (best-fit value)” value (T287A-2, run 2) was 108 and the EC50 (T287A-2, run 2, read-out: EC50 (best-fit value)) was 0.519 nM. For the same compound, the “Bottom (best-fit value)” value (T287A-3, run 3) was 2.734, the “LogEC50 (best-fit value)” value (T287A-3, run 3) was -9.182 and the “Span (best-fit value)” value (T287A-3, run 3) was 94.95. The “Top (best-fit value)” value (T287A-3, run 3) was 97.68, the EC50 (T287A-3, run 3, read-out: EC50 (best-fit value)) was 0.658 nM and the “EC50 of mutant versus wild-type” value (V103(2.64)N mutant of SSTR2) was “retained a similar EC50 as wild-type receptor”. For the same compound, the “Bottom (best-fit value)” value (W188A-1, run 1) was -1.717, the “LogEC50 (best-fit value)” value (W188A-1, run 1) was -9.896 and the “Span (best-fit value)” value (W188A-1, run 1) was 106.4. The “Top (best-fit value)” value (W188A-1, run 1) was 104.7, the EC50 (W188A-1, run 1, read-out: EC50 (best-fit value)) was 0.127 nM and the “Bottom (best-fit value)” value (W188A-2, run 2) was 1.331. For the same compound, the “LogEC50 (best-fit value)” value (W188A-2, run 2) was -10.14 and the “Span (best-fit value)” value (W188A-2, run 2) was 108.6.
